Values after ≈ are worked out from the molar mass of the structure shown. Values joined by “and” are separate entries in the source; they are usually repeats but may differ in a detail not shown here. Equal values may be shown once.

Test systems include Candida albicans SC5314; Candida parapsilosis; Candida albicans; Candida tropicalis; Candida krusei ATCC 6258; Candida glabrata; Candida glabrata 090902; Escherichia coli 091335; Staphylococcus aureus; Klebsiella oxytoca; Nocardia asteroides; Proteus mirabilis; Klebsiella pneumoniae; Aeromonas sobria; Proteus vulgaris.
Common to all, as to test: ≥ marks a high value that may be exact or a test limit, other limits are often not marked, values filed in µg/mL are converted to µM
Experiment [1] has as its system Candida tropicalis ATCC 13803.
For experiment [2], the system named is Candida parapsilosis ATCC 22019.
The test system of experiment [3] is Candida glabrata ATCC 15126.
Experiment [4] deals with Staphylococcus aureus ATCC 25923.
Experiment [5] deals with Pseudomonas aeruginosa CGMCC 1.50.
For experiment [6], the system named is Klebsiella pneumoniae 08040724.
Experiment [7] concerns Nocardia asteroides 201118.
Experiment [8] deals with Enterococcus faecalis 981.
Experiment [9] deals with Escherichia coli ATCC 25922.
In experiment [10] the test system is Enterococcus faecium 091299.
Experiment [11] has as its system Streptococcus agalactiae ATCC 27956.
For experiment [12], the system named is Streptococcus dysgalactiae subsp. dysgalactiae ATCC 27957.
Experiment [13] concerns Pseudomonas aeruginosa 091411.
Experiment [14] has as its system Staphylococcus aureus ATCC 6538.
For experiment [15], the system named is Cutibacterium acnes ATCC 11827.
In experiment [16] the test system is Bacillus cereus ATCC 10876.
Experiment [17] relates to Staphylococcus aureus ATCC 2592.
Experiment [18] concerns Streptococcus equi subsp. zooepidemicus ATCC 43079.
Experiment [19] relates to Pseudomonas aeruginosa 091412.
Experiment [20] deals with Stenotrophomonas maltophilia.
Experiment [21] concerns Enterococcus faecalis ATCC 29212.
Experiment [22] concerns Staphylococcus haemolyticus.

For `CC(C)C[C@H](NC(=O)[C@H](CC(C)C)NC(=O)[C@H](Cc1ccc(O)cc1)NC(=O)[C@H](CCCCN)NC(=O)[C@@H](N)CS)C(=O)N[C@@H](CCCCN)C(=O)N[C@@H](Cc1c[nH]c2ccccc12)C(=O)N[C@@H](CCCN=C(N)N)C(=O)O` [CKYLLKWR], the minimum inhibitory concentration (MIC) against Candida albicans SC5314 is 22.5 µM (≈ 25 µg/mL); in experiment [1], 11.3 µM (≈ 12.5 µg/mL); with Candida parapsilosis, 31.9 µM (≈ 35.4 µg/mL); in experiment [2], ≥ 45.1 µM; against Candida albicans, 63.7 µM (≈ 70.7 µg/mL); against Candida tropicalis, 11.3 µM (≈ 12.5 µg/mL). Further, the minimum inhibitory concentration (MIC) was 22.5 µM (≈ 25 µg/mL) with Candida krusei ATCC 6258, 22.5 µM (≈ 25 µg/mL) in experiment [3] and ≥ 45.1 µM against Candida glabrata.
Take `CC[C@H](C)[C@H](NC(=O)[C@H](C)NC(=O)[C@@H]1CCCN1C(=O)[C@H](CC(C)C)NC(=O)[C@@H](N)Cc1ccccc1)C(=O)N[C@H](C(=O)NCC(=O)N[C@@H](CCSC)C(=O)N[C@@H](C)C(=O)N[C@@H](C)C(=O)N[C@@H](CCCCN)C(=O)N[C@H](C(=O)N[C@@H](CC(C)C)C(=O)N1CCC[C@H]1C(=O)N[C@@H](C)C(=O)N[C@@H](Cc1ccccc1)C(=O)N[C@@H](CC(C)C)C(=O)N[C@H]1CSSC[C@@H](C(=O)O)NC(=O)[C@H](CCCCN)NC(=O)[C@H](CCCCN)NC(=O)[C@H]([C@@H](C)O)NC(=O)[C@H]([C@@H](C)CC)NC(=O)[C@H](CCCCN)NC1=O)C(C)C)[C@@H](C)CC` [FLPAIIGMAAKVLPAFLCKITKKC]: the MIC in experiment [4] is 4.7 µM (≈ 12.1 µg/mL); in experiment [5], ≥ 75 µM; in experiment [6], ≥ 75 µM; in experiment [7], 1.2 µM (≈ 3.09 µg/mL); in experiment [8], 9.4 µM (≈ 24.2 µg/mL); in the experiment with Candida glabrata 090902 it was ≥ 37.5 µM. In addition, the MIC in experiment [9] amounted to 37.5 µM (≈ 96.6 µg/mL).
Turning to `CC[C@H](C)[C@H](NC(=O)[C@H](CCSC)NC(=O)[C@H](CC(C)C)NC(=O)[C@H](Cc1ccccc1)NC(=O)[C@H](CCC(N)=O)NC(=O)[C@H](Cc1ccc(O)cc1)NC(=O)[C@H](CCCN=C(N)N)NC(=O)[C@@H](NC(=O)[C@@H](NC(=O)[C@@H](NC(=O)[C@H](CO)NC(=O)CNC(=O)[C@H](CCCN=C(N)N)NC(=O)[C@H](CCCN=C(N)N)NC(=O)[C@@H](N)CCCCN)C(C)C)[C@@H](C)O)[C@@H](C)O)C(=O)N[C@@H](Cc1cnc[nH]1)C(=O)N[C@@H](CC(C)C)C(=O)N[C@@H](CC(C)C)C(=O)N[C@@H](CCCN=C(N)N)C(=O)N1CCC[C@H]1C(=O)N[C@@H](CCCCN)C(=O)N[C@@H](CCCCN)C(=O)N[C@@H](CC(C)C)C(=O)N[C@@H](Cc1ccccc1)C(=O)N[C@@H](C)C(=O)O` [KRRGSVTTRYQFLMIHLLRPKKLFA], the minimum inhibitory concentration (MIC) is 3.07 µM (≈ 9.4 µg/mL) in experiment [10]; 24.5 µM (≈ 75 µg/mL) against Escherichia coli 091335; 13.1 µM (≈ 40.1 µg/mL) in experiment [11]; 0.392 µM and > 0.196 µM in the experiment with Staphylococcus aureus; 13.1 µM (≈ 40.1 µg/mL) in [12]; 6.14 µM (≈ 18.8 µg/mL) in [13]. Also, the MIC against Candida albicans was 3.07 µM (≈ 9.4 µg/mL); in [14] it was 13.4 µM (≈ 41 µg/mL); against Candida tropicalis, ≥ 32.7 µM; against Klebsiella oxytoca it was ≥ 32.7 µM; in experiment [15], 1.54 µM (≈ 4.7 µg/mL); in the experiment on Nocardia asteroides it was 0.392 µM (≈ 1.2 µg/mL). Moreover, the MIC was 13.1 µM (≈ 40.1 µg/mL) in [16]; 0.196 µM (≈ 0.6 µg/mL) in [17]; ≥ 32.7 µM against Proteus mirabilis; 13.1 µM (≈ 40.1 µg/mL) in experiment [18]; > 32.7 µM in the experiment on Klebsiella pneumoniae; ≥ 32.7 µM in experiment [19]. Besides, the MIC in experiment [20] was 3.07 µM (≈ 9.4 µg/mL); in experiment [21], 9.8 µM (≈ 30 µg/mL); with Candida glabrata 090902 it was ≥ 32.7 µM; against Aeromonas sobria, 3.07 µM (≈ 9.4 µg/mL); in experiment [22] it was 0.196 µM (≈ 0.6 µg/mL); in experiment [9] it was 2.9 µM (≈ 8.88 µg/mL). Further, in the experiment with Proteus vulgaris, the MIC was ≥ 32.7 µM.

These data come from DBAASP.
